Source: PMC5653750, “hiPSC-CM Monolayer Maturation State Determines Drug Responsiveness in High Throughput Pro-Arrhythmia Screen” (Scientific Reports, 2017)

Key:
[1] = test system: fetal-like hiPSC-CM monolayers; test: 96-well optical mapping of action potentials (FluoVolt), fetal-like monolayers; format: cell-based, human; conditions: for Maximum APD 80 Prolongation Risk Score (Fetal-like hiPSC-CM): maximal effect on APD independent of dose, APD80 divided by vehicle control APD80, 30 min treatment, concentrations up to 10 µM; for effect on action potential duration (APD80), fetal-like monolayers: spontaneous action potentials, result in words
Description: (§1) hiPSC-CMs were used from two different commercial sources: Cellular Dynamics International (CDI, Madison WI) and Cellartis (Takara Bio USA). Custom made 96-well plates with inserts of PDMS (Polydimethylsiloxane) were generated essentially as before. PDMS vulcanized silicone transparent sheeting was obtained from SMI (Specialty Manufacturing, Inc, Saginaw, MI) with 40D (D, Durometer or ≈1000 kPa) hardness and 9 mm diameter coverslips were cut out to fit in each well of 96 well plates. PDMS coverslips were manually added to each well of 96 well plates (Corning) and each plate was subsequently sterilized via ethylene oxide sterilization. PDMS coverslips were then matrigel-coated (500 μg/mL; BD Biosciences, San Jose, CA) prior to plating hiPSC-CMs. Thawing and plating of cryopreserved vials of cells into 96-well plates was as essentially described before. Briefly, 5 × 10^4 cells were plated per well and allowed to form continuous monolayers and maintained in RPMI (Life Technologies) media supplemented with B27 + insulin (Life Technologies). Monolayers were maintained in culture for seven days before electrophysiological testing. Immature fetal-like hiPSC-CM monolayers were generated in 96 well plates without the PDMS coverslip inserts. Fetal-like hiPSC-CMs were also plated on matrigel coated plastic bottoms.
(§2) Optical mapping was performed as essentially described recently[22] with slight modification. A schematic of the 96-well plate optical mapping set up is shown in supplemental Fig. 1. In this assay a 96-well plate is positioned below a high speed CCD camera (200 fps, 80 × 80 pixels) on a heating block to enable recording at physiological temperature (37 °C). hiPSC-CM monolayers were loaded with the membrane potential dye called FluoVolt™ which is commercially available (ThermoFisher Scientific, F10488). Blue LED illumination was used and spontaneous or electrically excited action potentials were recorded with the CCD camera via appropriate emission filter (515 nm, green light, Chroma). For calcium flux quantification monolayers were loaded with fluo-4AM (10 µM). In this assay a 6 × 6 array of wells (supplemental Fig. 1C, 36 wells total) in the 96-well plate could be imaged simultaneously to enable rapid dose response data for all compounds using up to six different doses. Post-acquisition data analysis was done using custom software (Scroll)[22],[25] with automated peak detection capability and automated repolarization quantification to determine APD80 (action potential at 80% of repolarization). […] In some experiments electrical pacing was done to control for rate of activations (supplemental Fig. 3). A custom made frame of field stimulation electrodes was engineered to enable electrical pacing to the 6 × 6 array of wells.
(§3) Action potentials were recorded in the presence of each test compound.
(§4) The effect of each compound to prolong or shorten the APD80 of hiPSC-CM monolayers was quantified relative to vehicle control values obtained in each plate. In other words, the APD80 or CaTD80 quantified at each concentration of each compound was divided by the APD80 or CaTD80 quantified for vehicle control wells. Risk score values were quantified for both fetal-like and mature hiPSC-CM monolayers.

[2] = test system: mature hiPSC-CM monolayers; test: 96-well optical mapping of action potentials (FluoVolt), mature monolayers; format: cell-based, human; conditions: for Maximum APD 80 Prolongation Risk Score (Mature hiPSC-CM): maximal effect on APD independent of dose, APD80 divided by vehicle control APD80, 30 min treatment, concentrations up to 10 µM; for effect on action potential duration (APD80), mature monolayers: spontaneous action potentials, result in words
Description: as §1, §2, §3, §4

[3] = set-up: method as in PMID 26893184; conditions: cited from earlier work
[4] = test system: fetal-like hiPSC-CM monolayers; test: Calcium flux optical mapping (fluo-4AM), fetal-like monolayers; format: cell-based, human; conditions: dose response; n = 4 per dose
Procedure: (§5) Optical mapping was performed as essentially described recently[22] with slight modification. A schematic of the 96-well plate optical mapping set up is shown in supplemental Fig. 1. In this assay a 96-well plate is positioned below a high speed CCD camera (200 fps, 80 × 80 pixels) on a heating block to enable recording at physiological temperature (37 °C). hiPSC-CM monolayers were loaded with the membrane potential dye called FluoVolt™ which is commercially available (ThermoFisher Scientific, F10488). Blue LED illumination was used and spontaneous or electrically excited action potentials were recorded with the CCD camera via appropriate emission filter (515 nm, green light, Chroma). For calcium flux quantification monolayers were loaded with fluo-4AM (10 µM). […] Post-acquisition data analysis was done using custom software (Scroll)[22],[25] with automated peak detection capability and automated repolarization quantification to determine APD80 (action potential at 80% of repolarization). […]
(§6) Nilotinib is an anti-cancer kinase inhibitor compound with possible side effects to prolong the QT interval. […] In Fig. 7 calcium transients were recorded using fluo-4AM loaded monolayers to study the effect of nilotinib on intracellular calcium flux dynamics. […]

[5] = test system: mature hiPSC-CM monolayers; test: Calcium flux optical mapping (fluo-4AM), mature monolayers; format: cell-based, human; conditions: dose response; n = 4 per dose
Procedure: as §5, §6

Row | Maximum APD 80 Prolongation Risk Score (Fetal-like hiPSC-CM) [1] | Maximum APD 80 Prolongation Risk Score (Mature hiPSC-CM) [2] | effect on action potential duration (APD80), fetal-like monolayers [1] | effect on action potential duration (APD80), mature monolayers [2] | Structure (SMILES) | other results
1 | 1.12 | 1.04 |  |  | CC/C(=C(\c1ccccc1)c1ccc(OCCN(C)C)cc1)c1ccccc1 [Tamoxifen, tamoxifen] | 
2 | 1.15 | 1.15 |  |  | COc1cccc2c1C(=O)c1c(O)c3c(c(O)c1C2=O)C[C@@](O)(C(=O)CO)C[C@@H]3O[C@H]1C[C@H](N)[C@H](O)[C@H](C)O1 [Doxorubicin, doxorubicin] | 
3 | 1.49 | 1.15 |  |  | COc1cc(N)c(Cl)cc1C(=O)NC1CCN(CCCOc2ccc(F)cc2)CC1OC (stereo not shown) [Cisapride, cisapride] | CiPA risk class for causing Torsade de Pointes (TdP) [3]: intermediate risk
4 | 1.91 | 1.81 |  |  | C=C[C@H]1C[N@@]2CC[C@H]1C[C@@H]2[C@@H](O)c1ccnc2ccc(OC)cc12 [Quinidine, quinidine] | 
5 | 0.91 | 1.34 | shortened action potential duration | prolong the APD | CCCCc1oc2ccccc2c1C(=O)c1cc(I)c(OCCN(CC)CC)c(I)c1 [Amiodarone, amiodarone] | 
6 | 1.43 | 1.21 | more sensitive |  | CC(C)(C)c1ccc(C(O)CCCN2CCC(C(O)(c3ccccc3)c3ccccc3)CC2)cc1 (stereo not shown) [Terfenadine, terfenadine] | CiPA risk class for causing Torsade de Pointes (TdP) [3]: intermediate risk
7 | 0.97 |  |  |  | COc1ccc([C@@H]2Sc3ccccc3N(CCN(C)C)C(=O)[C@@H]2OC(C)=O)cc1 [Diltiazem, diltiazem] | 
8 |  | 1.64 |  |  | CC(C)COCC(CN(Cc1ccccc1)c1ccccc1)N1CCCC1 (stereo not shown) [Bepridil, bepridil] | CiPA risk class for causing Torsade de Pointes (TdP) [3]: high risk
9 | 1 |  | did not detect any APD80 prolongation | prolonged the action potential duration | CNCCC(Oc1ccc(C(F)(F)F)cc1)c1ccccc1 (stereo not shown) [Fluoxetine, fluoxetine] | monolayers in which quiescence was caused ([1]; 10.0 µmol L^−1, 8/8 monolayers): 100%; spontaneous beating frequency, fetal-like monolayers ([1]; sub-maximal doses (below 10.0 µmol L^−1)): nor alteration of the spontaneous beating frequency; spontaneous beating rate, mature monolayers [2]: slowed the spontaneous beating rate; quiescence, mature monolayers ([2]; any concentration tested (up to 10.0 µmol L^−1)): did not induce quiescence at any concentration tested; lowest concentration tested, at which action potential duration was already prolonged ([2]; mature monolayers): 1.0 nmol/L
10 | 1.36 | 1.29 | APD prolongation was detected | APD prolongation was detected | Cc1cn(-c2cc(NC(=O)c3ccc(C)c(Nc4nccc(-c5cccnc5)n4)c3)cc(C(F)(F)F)c2)cn1 [Nilotinib, nilotinib] | calcium transient duration 80 (CaTD80), fetal-like monolayers [4]: increased calcium transient duration 80 (CaTD80) in a dose dependent manner; calcium transient duration 80 (CaTD80), mature monolayers [5]: increased calcium transient duration 80 (CaTD80) in a dose dependent manner
11 | 1.14 | 1.33 |  |  | CN1CCN(C2=Nc3cc(Cl)ccc3Nc3ccccc32)CC1 [Clozapine, clozapine] | 

Row | Structure (SMILES) | Maximum APD 80 Prolongation Risk Score (Fetal-like hiPSC-CM) [1] | Maximum APD 80 Prolongation Risk Score (Mature hiPSC-CM) [2] | effect on action potential duration (APD80), fetal-like monolayers [1] | effect on action potential duration (APD80), mature monolayers [2] | other results
12 | CN(CCOc1ccc(NS(C)(=O)=O)cc1)CCc1ccc(NS(C)(=O)=O)cc1 [Dofetilide, dofetilide] | 2.14 |  |  | did not have as severe action potential duration prolongation | action potential duration alternans, fetal-like monolayers ([1]; electrical pacing 1 Hz, 100 nM): action potential duration alternans were apparent; action potential duration alternans, mature monolayers ([2]; electrical pacing 1 Hz, 100 nM): not in the mature hiPSC-CM monolayers
